Source: publication PMC10296347, “Identification of the Stapled α-Helical Peptide ATSP-7041 as a Substrate and Strong Inhibitor of OATP1B1 In Vitro” (Biomolecules, 2023)

Experiments:
[1] = molecular target: T1, OATP1B1 (Homo sapiens, UniProt Q9Y6L6)
T1 sequence (Q9Y6L6 1-691): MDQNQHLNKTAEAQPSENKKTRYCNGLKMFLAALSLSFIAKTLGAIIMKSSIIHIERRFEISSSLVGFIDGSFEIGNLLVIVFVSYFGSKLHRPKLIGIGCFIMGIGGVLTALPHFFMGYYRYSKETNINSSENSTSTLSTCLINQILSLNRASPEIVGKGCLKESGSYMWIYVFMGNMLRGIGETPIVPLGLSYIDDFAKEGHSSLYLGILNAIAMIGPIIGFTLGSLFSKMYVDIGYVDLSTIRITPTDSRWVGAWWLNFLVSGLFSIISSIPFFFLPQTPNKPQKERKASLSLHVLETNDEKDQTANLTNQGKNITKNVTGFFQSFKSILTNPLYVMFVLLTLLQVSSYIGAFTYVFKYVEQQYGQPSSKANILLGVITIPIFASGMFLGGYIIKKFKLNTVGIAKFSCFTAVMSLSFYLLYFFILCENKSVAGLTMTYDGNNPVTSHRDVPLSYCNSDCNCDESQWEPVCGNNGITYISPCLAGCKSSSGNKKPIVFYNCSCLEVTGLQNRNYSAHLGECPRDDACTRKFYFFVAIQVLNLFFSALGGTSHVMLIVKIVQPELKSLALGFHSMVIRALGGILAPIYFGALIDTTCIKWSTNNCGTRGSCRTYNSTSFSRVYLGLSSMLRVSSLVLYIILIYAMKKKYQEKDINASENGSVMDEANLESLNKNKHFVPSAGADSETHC
Protocol: (§1) The evaluation of ATSP-7041 as a substrate for OATP1B1 was performed using OATP1B1-expressing HEK293 cells in 24- or 96-well plates according to the manufacturer’s protocol (v1.9 for OATP1B1) with minor modifications. In brief, after equilibration with the transport buffer, the buffer was replaced with a fresh transport buffer containing the indicated concentrations of ATSP-7041 or 1 μM E217βG in the presence or absence of positive control inhibitors (50 μM rifampicin or 10 μM cyclosporine). After incubation for the indicated time at 37 °C, the cells were immediately rinsed twice with an ice-cold transport buffer. Substrates were extracted by incubation with 400 μL (for 24-well) or 100 μL (for 96-well) of 0.1% formic acid in acetonitrile-containing internal standard (IS) (0.125 μM benzyl-ATSP-7041 for ATSP-7041 in uptake experiment of various concentrations of ATSP-7041 or 0.0125 μM for ATSP-7041 in all other experiments of benzyl-ATSP-7041 and 0.1 μM estradiol-3β-glucuronide) for 5 min at 20–25 °C, filtered using a PVDF-based filter, diluted 1.4 times (ATSP-7041) or 2 times (E217βG) with water, and analyzed using LC/MS.

[2] = molecular target: P-gp (Homo sapiens, UniProt P08183); assay: ATP-dependent uptake by inside-out membrane vesicles expressing P-gp; conditions: NMQ 2 μM
P-gp, sequence (P08183 whole entry): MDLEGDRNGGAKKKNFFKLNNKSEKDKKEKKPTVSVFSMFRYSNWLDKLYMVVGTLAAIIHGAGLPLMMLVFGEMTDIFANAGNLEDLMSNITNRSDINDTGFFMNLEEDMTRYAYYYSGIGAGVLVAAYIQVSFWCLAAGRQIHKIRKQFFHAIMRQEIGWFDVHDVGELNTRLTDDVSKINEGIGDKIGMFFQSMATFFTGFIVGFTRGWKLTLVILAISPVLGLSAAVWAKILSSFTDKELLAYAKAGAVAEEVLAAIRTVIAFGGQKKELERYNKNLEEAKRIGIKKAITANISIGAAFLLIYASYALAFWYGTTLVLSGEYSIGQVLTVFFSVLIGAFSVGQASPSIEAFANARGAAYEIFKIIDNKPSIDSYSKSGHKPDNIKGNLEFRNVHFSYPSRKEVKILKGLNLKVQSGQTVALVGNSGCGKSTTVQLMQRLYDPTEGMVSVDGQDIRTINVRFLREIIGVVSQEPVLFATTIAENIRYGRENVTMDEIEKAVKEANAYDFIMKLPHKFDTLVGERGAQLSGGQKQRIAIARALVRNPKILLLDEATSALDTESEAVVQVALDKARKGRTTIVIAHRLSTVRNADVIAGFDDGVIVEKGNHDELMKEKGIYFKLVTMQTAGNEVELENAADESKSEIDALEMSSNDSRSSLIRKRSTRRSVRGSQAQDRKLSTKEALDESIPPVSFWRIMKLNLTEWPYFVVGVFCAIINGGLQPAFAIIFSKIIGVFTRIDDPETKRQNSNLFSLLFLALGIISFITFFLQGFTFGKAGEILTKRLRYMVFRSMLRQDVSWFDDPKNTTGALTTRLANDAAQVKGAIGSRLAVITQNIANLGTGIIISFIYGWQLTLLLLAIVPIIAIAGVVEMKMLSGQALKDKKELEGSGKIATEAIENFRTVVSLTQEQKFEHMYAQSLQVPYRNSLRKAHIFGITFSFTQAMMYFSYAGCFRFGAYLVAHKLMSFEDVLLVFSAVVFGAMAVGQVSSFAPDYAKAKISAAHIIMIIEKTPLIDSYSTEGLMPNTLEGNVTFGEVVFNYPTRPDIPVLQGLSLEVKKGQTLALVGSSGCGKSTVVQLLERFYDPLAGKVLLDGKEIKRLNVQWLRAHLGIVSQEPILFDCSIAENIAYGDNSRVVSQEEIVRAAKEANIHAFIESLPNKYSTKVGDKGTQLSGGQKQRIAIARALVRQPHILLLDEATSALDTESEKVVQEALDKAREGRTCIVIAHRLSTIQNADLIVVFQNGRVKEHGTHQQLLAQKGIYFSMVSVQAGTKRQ

[3] = in vitro; conditions: human, s9, pH 7.4
[4] = molecular target: T1, OATP1B1; remark: listed apart in the source
Protocol: The inhibitory activities of ATSP-7041 on OATP1B1 were evaluated using OATP1B-expressing HEK293 cells in 96-well plates as described above. For dose-dependent inhibition, ATSP-7041 at the indicated concentrations was added to the transport buffer, and E217βG was used as the substrate. To study the pre-incubation effect, the cells were pre-incubated with 10 μM ATSP-7041 or 10 μM cyclosporine in transport buffer after equilibration with the transport buffer for 30 min at 37 °C and washed twice before the replacement of the transport buffer containing E217βG.
LC/MS analysis data were quantified using Trace Finder 4.1 (Thermo Fisher Scientific, Waltham, MA, USA) for peak detection and area quantification. To study the transport activities of OATP1B1, the OATP1B1-mediated uptake of ATSP-7041 and E217βG was determined by normalization with IS (divide the area of ion peak) and subsequent background-corrected uptake using mock cells. To evaluate the inhibitory activities of ATSP-7041 on OATP1B1, transporter activities were determined as a percent of the control (activities without ATSP-7041) at each concentration, and the half maximal inhibitory concentration (IC50) for the inhibition of OATP1B1 activity by ATSP-7041 was determined by fitting a curve (inhibitor concentrations vs. normalized response) using GraphPad Prism 8 (GraphPad Software, San Diego, CA, USA). […]

[5] = molecular target: T2, OATP1B3 (Homo sapiens, UniProt Q9NPD5); assay: Uptake by OATP1B3-expressing HEK293 cells (substrate evaluation); conditions: E217βG 3 μM, 5 min, 37 °C
T2 sequence (Q9NPD5 1-702): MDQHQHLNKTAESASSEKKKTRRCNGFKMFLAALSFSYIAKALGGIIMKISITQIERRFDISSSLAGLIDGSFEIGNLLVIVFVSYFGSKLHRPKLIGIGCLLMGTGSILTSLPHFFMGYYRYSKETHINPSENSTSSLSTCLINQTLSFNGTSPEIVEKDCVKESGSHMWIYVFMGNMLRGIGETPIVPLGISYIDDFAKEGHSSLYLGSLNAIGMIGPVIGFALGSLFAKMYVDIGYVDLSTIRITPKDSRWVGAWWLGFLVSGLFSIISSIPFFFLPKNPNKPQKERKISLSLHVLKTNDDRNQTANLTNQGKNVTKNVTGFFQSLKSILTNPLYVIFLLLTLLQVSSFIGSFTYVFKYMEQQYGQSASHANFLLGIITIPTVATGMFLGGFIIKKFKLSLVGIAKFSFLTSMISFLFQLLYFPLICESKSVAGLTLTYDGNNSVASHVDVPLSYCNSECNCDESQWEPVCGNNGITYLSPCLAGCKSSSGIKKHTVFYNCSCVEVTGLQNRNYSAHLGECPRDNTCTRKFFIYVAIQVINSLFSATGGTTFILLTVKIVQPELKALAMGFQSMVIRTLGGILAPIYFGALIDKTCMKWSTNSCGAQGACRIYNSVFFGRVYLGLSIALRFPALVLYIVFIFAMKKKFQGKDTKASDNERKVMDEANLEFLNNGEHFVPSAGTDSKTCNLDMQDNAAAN
Protocol: after the time course assessment (0, 5, 10, 20, 30, 40, and 60 min). Similarly, the inhibitory […]
measuring testosterone and 6β-hydroxytestosterone at 90 min, after the time course assessment (0, 10, 20, 40, 60, 90, and 120 min). Other human liver S9 (B, C, and D) fractions were also used to evaluate vendor differences. Midazolam, 1ʹ-hydroxymidazolam, testosterone, and 6β-hydroxytestosterone were detected using LC/MS.
4. Evaluation of ATSP-7041 as a substrate of transporters
The evaluation of ATSP-7041 as a substrate for OATP1B1 and OATP1B3 transporters was performed using OATP1B-expressing HEK293 cells in 24-well plates according to the manufacturer’s protocol (v1.9 for OATP1B1 and v2.0 for OATP1B3) with minor modifications.
In brief, after equilibration with the transport buffer, the buffer was replaced with a fresh transport buffer containing ATSP-7041 (0.2 μM) or E217βG (1 μM for OATP1B1 or 3 μM for OATP1B3). After incubation for 5 min at 37 °C, the cells were immediately rinsed twice with ice-cold transport buffer. Substrates were extracted by incubation with 400 μL of 0.1% formic acid in acetonitrile containing IS (0.0125 μM benzyl-ATSP-7041 and 0.1 μM estradiol-3β-glucuronide) for 5 min at 20-25 °C, filtered using a PVDF-based filter, diluted 1.4 times (ATSP-7041) or 2 times (E217βG) with water, and analyzed by LC/MS. […]

[6] = molecular target: T1, OATP1B1; assay: Uptake by OATP1B1-expressing HEK293 cells (substrate evaluation); conditions: E217βG 1 μM, 5 min, 37 °C
Protocol: as §1
LC/MS analysis data were quantified using Trace Finder 4.1 (Thermo Fisher Scientific, Waltham, MA, USA) for peak detection and area quantification. […] Differences in all figures were analyzed and all data were plotted using GraphPad Prism 9 (GraphPad Software). […]

[7] = molecular target: T3, BCRP (Homo sapiens, UniProt Q9UNQ0); assay: ATP-dependent uptake by inside-out membrane vesicles expressing BCRP; conditions: Lucifer yellow 50 μM
T3 sequence (Q9UNQ0 1-655): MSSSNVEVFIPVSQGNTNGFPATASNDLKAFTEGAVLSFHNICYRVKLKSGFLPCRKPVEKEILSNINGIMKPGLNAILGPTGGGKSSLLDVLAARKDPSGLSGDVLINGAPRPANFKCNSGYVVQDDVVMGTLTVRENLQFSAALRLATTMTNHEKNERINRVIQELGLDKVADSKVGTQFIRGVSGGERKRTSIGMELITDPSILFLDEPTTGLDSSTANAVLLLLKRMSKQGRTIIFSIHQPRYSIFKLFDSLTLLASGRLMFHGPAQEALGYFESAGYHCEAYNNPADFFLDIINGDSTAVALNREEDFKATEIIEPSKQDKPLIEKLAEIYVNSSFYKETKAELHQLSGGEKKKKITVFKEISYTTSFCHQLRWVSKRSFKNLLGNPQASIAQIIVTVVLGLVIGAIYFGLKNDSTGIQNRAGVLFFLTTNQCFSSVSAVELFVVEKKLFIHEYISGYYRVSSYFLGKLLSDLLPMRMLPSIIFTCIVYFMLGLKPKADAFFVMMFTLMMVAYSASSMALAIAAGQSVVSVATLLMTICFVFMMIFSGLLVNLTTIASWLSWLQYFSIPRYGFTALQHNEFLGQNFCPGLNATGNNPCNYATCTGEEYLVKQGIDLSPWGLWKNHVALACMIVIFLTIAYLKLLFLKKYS

## CO[C@H]1/C=C/O[C@@]2(C)Oc3c(C)c(O)c4c(O)c(c(/C=N/N5CCN(C)CC5)c(O)c4c3C2=O)NC(=O)/C(C)=C\C=C\[C@H](C)[C@H](O)[C@@H](C)[C@@H](O)[C@@H](C)[C@H](OC(C)=O)[C@@H]1C [rifampicin]
[1]; rifampicin 50 μM, E217βG 1 μM, 5 min co-incubation
  uptake of control substrate E217βG by OATP1B1-expressing HEK293 cells with inhibitor, % of without inhibitor: < 4%
[1]; substrate ATSP-7041 0.2 μM, rifampicin 50 μM or cyclosporine 10 μM, 5 and 60 min, 37 °C
  effect of index inhibitors on OATP1B1-dependent uptake of ATSP-7041: significantly inhibited

## C=C[C@H]1C[N+]2(C)CC[C@H]1C[C@@H]2[C@@H](O)c1ccnc2ccc(OC)cc12 [NMQ, N-methyl-quinidine]
[2]
  ATP-dependent uptake of positive control substrate by P-gp compared to mock vesicles: clearly observed

## CC(=O)N[C@@H](CC(C)C)C(=O)N[C@H](C(=O)N[C@@H](Cc1ccccc1)C(=O)N[C@]1(C)CCCCCCC=CCCC[C@@](C)(C(=O)N[C@@H](CO)C(=O)N[C@@H](C)C(=O)N[C@@H](C)C(N)=O)NC(=O)[C@H](CC2CCC2)NC(=O)[C@H](CCC(N)=O)NC(=O)[C@H](C)NC(=O)[C@H](Cc2c[nH]c3ccccc23)NC(=O)[C@H](Cc2ccc(O)cc2)NC(=O)[C@H](CCC(=O)O)NC1=O)[C@@H](C)O [ATSP-7041]
[3]
  remaining at 24 h, 0.5 μM: 91.6%
[4]
  IC50: 810 nM
  inhibition at 10 µM: > 96%

## C[C@]12CC[C@@H]3c4ccc(O)cc4CC[C@H]3[C@@H]1CC[C@@H]2O[C@@H]1O[C@H](C(=O)O)[C@@H](O)[C@H](O)[C@H]1O [E217βG, Estradiol-17β-glucuronide]
[5]
  uptake of control substrate in OATP1B3-transfected HEK293 cells relative to mock cells: ~137 fold
[6]
  uptake of control substrate in OATP1B1-transfected HEK293 cells relative to mock cells: approximately 611 fold

## Lucifer yellow
[7]
  ATP-dependent uptake of positive control substrate by BCRP compared to mock vesicles: clearly observed
